{
  "source": "patent US20100210597A1",
  "about": "“C21-Deoxy Ansamycin Derivatives as Antitumor Agents” (priority 2007, published 2010)",
  "system": "CXF HT29",
  "assay": "Monolayer proliferation assay (modified propidium iodide), CXF HT29",
  "format": "cell-based, human",
  "details": "average of 2 experiments",
  "description": "In vitro evaluation of compounds for anticancer activity in a panel of human tumour cell lines in a monolayer proliferation assay was carried out at the Oncotest Testing Facility, Institute for Experimental Oncology, Oncotest GmbH, Freiburg.\nThe Oncotest cell lines are established from human tumor xenografts as described by Roth et al., (1999). The origin of the donor xenografts is described by Fiebig et al., (1999). Other cell lines are either obtained from the NCl (DU145, MCF-7) or purchased from DSMZ, Braunschweig, Germany.\nAll cell lines, unless otherwise specified, are grown at 37° C. in a humidified atmosphere (95% air, 5% CO2) in a ‘ready-mix’ medium containing RPMI 1640 medium, 10% fetal calf serum, and 0.1 mg/mL gentamicin (PAA, Cölbe, Germany).\nA modified propidium iodide assay was used to assess the effects of the test compound(s) on the growth of six human tumour cell lines (Dengler et al., (1995)).\nBriefly, cells are harvested from exponential phase cultures by trypsinization, counted and plated in 96 well flat-bottomed microtitre plates at a cell density dependent on the cell line (5-10.000 viable cells/well). After 24 h recovery to allow the cells to resume exponential growth, 0.010 mL of culture medium (6 control wells per plate) or culture medium containing macbecin were added to the wells. Each concentration is plated in triplicate. Compounds were applied in two concentrations (0.001 mM and 0.01 mM). Following 4 days of continuous exposure, cell culture medium with or without test compound was replaced by 0.2 mL of an aqueous propidium iodide (P1) solution (7 mg/L). To measure the proportion of living cells, cells were permeabilized by freezing the plates. After thawing the plates, fluorescence was measured using the Cytofluor 4000 microplate reader (excitation 530 nm, emission 620 nm), giving a direct relationship to the total number of viable cells.\nGrowth inhibition is expressed as treated/control×100 (% T/C).\nIn vitro evaluation of the test compound, 20, for anticancer activity in a panel of human tumour cell lines in a monolayer proliferation assay was carried out as described in the general methods using a modified propidium iodide assay.",
  "data": [
    {"smiles": "CO[C@H]1C[C@H](C)Cc2cc(cc(OP(=O)(O)O)c2)NC(=O)/C(C)=C/CC[C@H](C)[C@@H](OC(N)=O)/C(C)=C/[C@H](C)[C@H]1O", "note": "[Compound 20, 4,5-dihydro-11-O-demethyl-15-demethoxy-18,21-didehydro-21-deoxomacbecin-18-phosphate]", "values": [
      {"measurement": "Test/Control (%) at drug concentration (μg/mL)", "setting": "CXF HT29, 0.01 μg/mL", "result": 112, "unit": "%"},
      {"measurement": "Test/Control (%) at drug concentration (μg/mL)", "setting": "CXF HT29, 0.1 μg/mL", "result": 43, "unit": "%"},
      {"measurement": "Test/Control (%) at drug concentration (μg/mL)", "setting": "CXF HT29, 1 μg/mL", "result": 7, "unit": "%"},
      {"measurement": "Test/Control (%) at drug concentration (μg/mL)", "setting": "CXF HT29, 10 μg/mL", "result": 7, "unit": "%"},
      {"measurement": "Test/Control (%) at drug concentration (μg/mL)", "setting": "CXF HT29, 100 μg/mL", "result": 5, "unit": "%"}
    ]}
  ]
}
